Data from patent publication US8188091B2, “Tetrahydroquinazoline compounds and their use in preparing medicaments for treating and preventing virosis” (Beijing Molecule Science and Technology Co., Ltd., priority 2007, dated 2012).
Like-named read-outs stand apart in the source and are kept apart here.

Tests used:
HBV DNA = test: Antiviral activity: inhibition of HBV DNA in supernatant of HepG 2.2.15 cells (dot blot hybridization); assay type: cell-based, hepatitis B virus (HBV); conditions: for IC50: Hepatitis B virus, HepG2.2.15, 192 h, read-out: IC50 (inhibition of the compounds on HBV DNA); for SI: selectivity index, TC50/IC50, HepG 2.2.15 cells
Description: The antiviral effects of the compounds according to the present invention was determined following the methods described by Sells et al. (M. A. Sells, M. L. Chen, g. Acs, Proc. Natl. Acad. Sci., 1987, 84, 1005-1009) and Korba et al., (B. E. Korba, J. L. Gerin, Antiviral Research, 1992, 19. 55-70).
(§1) The antiviral assays were carried out in 96-well microtitre plates. Only growth medium and HepG 2.2.15 cells were added to the first vertical row of the plate, as a blank control.
(§2) Stock solutions of the test compounds (50 mM) were initially dissolved in DMSO, and further dilutions were prepared in the growth medium of HepG 2.2.15 cell. The compounds according to the present invention, usually in a test concentration of 100 μg/ml (1st test concentration), were pipetted into each well in the second vertical test row of the microtitre plate and subsequently diluted by 2 times each time, up to 2^10-fold, using the growth medium plus 2% of foetal calf serum (volume 25 p. 1).
(§3) 225 μl of a HepG 2.2.15 cell suspension (5×10^4 cells/ml) in the growth medium plus 2% foetal calf serum were then added to each well of the microtitre plate.
(§4) The assay mixture was incubated at 37° C., 5% CO2 for 4 days. The supernatant was subsequently siphoned off and discarded, and 225 μl of freshly prepared growth medium were added to each well. Once more, the compounds according to the present invention were added, in a volume 25 μl of solution. The mixtures were incubated for another 4 days.
The supernatants were subsequently harvested and siphoned onto in vacuum 96-well dot blot chambers covered with a nylon membrane (in accordance with the instructions of the manufacturer).
Determination of the Antiviral Activity
After transfer of the supernatants onto the nylon membrane of the blot apparatus (see above), the supernatants of the HepG 2.2.15 cells were denatured (1.5 M NaCl/0.5 M NaOH), neutralized (3 M […]/0.5 M Tris HCl, pH 7.5) and washed (2×SSC). The DNA was subsequently baked onto the membrane By incubation of the filters at 120° C. for 2-4 hours.
The viral DNA of the treated HepG 2.2.15 cells on the nylon filter membrane was usually detected using non-radioactive digoxigenin-labelled hepatitis B-specific DNA probes, which were in each case labelled with digoxigenin, purified and used for hybridization in accordance with the instructions of the manufacturer.
Briefly speaking, the prehybridization and hybridization were carried out in 5×SSC, 1× a blocking agent, 0.1% N-lauroylsacosine, 0.02% SDS and 100 μg of DNA from herring sperm. The prehybridization was carried out at 60° C. for 30 minutes and the specific hybridization was carried out using 20 to 40 ng/ml of the digoxigenated denatured HBV-specific DNA (14 hours, 60° C.). The filler membrane was subsequently washed and the antibody against digoxigenin of HBV DNA was determined.
The digoxigenin-labelled DNA was detected immunologically in accordance with the instructions of the manufacturer.
Briefly speaking, the filler membranes were washed and prehybridized in the blocking agent (in accordance with the instructions of the manufacturer), and then hybridized for 30 minutes using an anti-DIG antibody previously coupled to an alkaline phosphatase. After washing, a substrate of alkaline phosphoesterase, CSPD, was added, incubated with the filter for 5 minutes, subsequently wrapped in a plastic film and incubated at 37° C. for a further 15 minutes. The chemiluminescene signals of the Hepatitis B-specific DNA were measured by exposition of the filters on an X-ray film (incubating for 10 minutes to 2 hours, depending on strength of the signals). The half-maximum inhibitory concentration (IC50) was determined.
The half-maximum inhibitory concentration (IC50) means the concentration of the compound according to the present invention at which the hepatitis B-specific band was reduced by 50% in comparison with an untreated sample.

[1] = Determination of the cytotoxicity in HepG 2.2.15 cells (microscopy, Reed & Muench); assay type: cell-based; conditions: human, pathological changes at 8 days, read-out: TC50 (half-maximum toxic concentration)
Description: as §1, §2, §3, §4
Before the supernatants were harvested for determining the antiviral effect, the HepG 2.2.15 cells were examined by an optical microscopy or by biochemical detecting methods (for example Alamar Blue staining or Trypan Blue staining) for cytotoxic changes.
Determination of the Cytotoxicity
Substances-induced cytotoxic or cytostatic changes in the HepG 2.2.15 cells can be determined by for example a optical microscopy and expressed as changes in the cell morphology. Such substance-induced changes, for example, as cell lysis, vacuolization or changed cell morphology in the HepG 2.2.15 cells was apparent in comparison with those in untreated cells. The pathological changes were observed under a microscope at 8 days as indice, wherein a complete destroy being designated as 4, 75% as 3, 50% as 2, 25% as 1, and no pathological change as 0. The average degree of pathological change and inhibition percentages at various concentrations were calculated, and a half-maximum toxic concentration (TC50) and a maximum non-toxic concentration TC0 were determined according to Reed & Muench methods.
TC50 means the concentration of the compounds according to the present invention at which 50% of the cells have a morphology which is similar to that of the corresponding cell control.

[2] = Solubility of the hydrochloride solid in solvents; assay type: physicochemical
Description: 0.38 g of the object compound obtained in Example 1 was dissolved in 2 ml anhydrous ethanol, to which hydrogen chloride ethyl solution was added dropwise to precipitate a solid, and filtered to obtain an off-white powdery solid 0.41 g, mp 197-199° C.

[3] = HepG 2.2.15 cells, 8 days treatment

| Structure (SMILES) | IC50 (HBV DNA; [3]) | SI (HBV DNA) | CC50 at 8 days [1] | IC50 (HBV DNA) | solubility in dichloromethane, ethyl acetate, acetone, etc. ([2]; dichloromethane, ethyl acetate, acetone, etc.) | solubility in methanol and ethanol ([2]; methanol and ethanol) | solubility in water ([2]; water) | melting point |
| --- | --- | --- | --- | --- | --- | --- | --- | --- |
| O=C1CCCC2=C1C(c1ccccc1Cl)N=C(c1cccnc1)N2 (stereo not shown) [Example 9, 2-(pyridin-3-yl)-4-(2-chlorophenyl)-4,6,7,8-tetrahydroquinazolin-5(1H)-one] | > 29.6 µM | <5.6 | 167 µM |  |  |  |  |  |
| CC1(C)CC(=O)C2=C(C1)NC(c1c(F)cc(F)cc1F)=NC2c1ccc(F)cc1Cl (stereo not shown) [Example 11, 2-(2,4,6-trifluorophenyl)-4-(2-chloro-4-fluorophenyl)-7,7-dimethyl-4,6,7,8-tetrahydroquinazolin-5(1H)-one] | > 22.9 µM | <3.2 | 73.7 µM |  |  |  |  |  |
| O=C1CCCC2=C1C(c1ccccc1)N=C(c1cccnc1)N2 (stereo not shown) [Example 6, 2-(pyridin-3-yl)-4-phenyl-4,6,7,8-tetrahydroquinazolin-5(1H)-one] |  | <4.7 | 193 µM | > 32.9 µM |  |  |  |  |
| O=C1CCCC2=C1C(c1ccc(F)cc1Cl)N=C(c1cccnc1)N2 (stereo not shown) [Example 3, 2-(pyridin-3-yl)-4-(2-chloro-4-fluorophenyl)-4,6,7,8-tetrahydroquinazolin-5(1H)-one] | 25.2 µM | 9.25 | 233 µM |  |  |  |  |  |
| CC1(C)CC(=O)C2=C(C1)NC(c1cccnc1)=NC2c1ccccc1 (stereo not shown) [Example 5, 2-(pyridin-3-yl)-4-phenyl-7,7-dimethyl-4,6,7,8-tetrahydroquinazolin-5(1H)-one] | 22.5 µM | 7.70 | 173 µM |  |  |  |  |  |
| CC1(C)CC(=O)C2=C(C1)NC(c1cccnc1)=NC2c1ccccc1Cl (stereo not shown) [Example 7, 2-(pyridin-3-yl)-4-(2-chlorophenyl)-7,7-dimethyl-4,6,7,8-tetrahydroquinazolin-5(1H)-one] | 26.2 µM | 2.57 | 67.3 µM |  |  |  |  |  |
| CC1(C)CC(=O)C2=C(C1)NC(c1ccccn1)=NC2c1ccc(F)cc1Cl (stereo not shown) [Example 12, 2-(pyridin-2-yl)-4-(2-chloro-4-fluorophenyl)-7,7-dimethyl-4,6,7,8-tetrahydroquinazolin-5(1H)-one] | > 26 µM | <3.7 | 97 µM |  |  |  |  |  |
| CC1(C)CC(=O)C2=C(C1)NC(c1cccnc1)=NC2c1ccc(F)cc1 (stereo not shown) [Example 4, 2-(pyridin-3-yl)-4-(4-fluorophenyl)-7,7-dimethyl-4,6,7,8-tetrahydroquinazolin-5(1H)-one] | 25.3 µM | 5.73 | 145 µM |  |  |  |  |  |
| O=C1CCCC2=C1C(c1ccc(F)cc1Cl)N=C(c1c(F)cc(F)cc1F)N2 (stereo not shown) [Example 10, 2-(2,4,6-trifluorophenyl)-4-(2-chloro-4-fluorophenyl)-4,6,7,8-tetrahydroquinazolin-5(1H)-one] | > 24.4 µM | <3.8 | 94.1 µM |  |  |  |  |  |
| CC1(C)CC(=O)C2=C(C1)NC(c1cccnc1)=NC2c1ccc(F)cc1Cl.Cl (stereo not shown) [Example 2, 2-(pyridin-3-yl)-4-(2-chloro-4-fluorophenyl)-7,7-dimethyl-4,6,7,8-tetrahydroquinazolin-5(1H)-one hydrochloride] |  |  |  |  | insoluble | soluble slightly | very easily soluable |  |
| CC1(C)CC(=O)C2=C(C1)NC(c1cccnc1)=NC2c1ccc(F)cc1Cl (stereo not shown) [Example 1, 2-(pyridin-3-yl)-4-(2-chloro-4-fluorophenyl)-7,7-dimethyl-4,6,7,8-tetrahydroquinazolin-5(1H)-one] | 0.026 µM | 4192 | 109 µM |  |  |  |  | 186 to 187 °C |
| O=C1CCCC2=C1C(c1ccc(F)cc1)N=C(c1cccnc1)N2 (stereo not shown) [Example 8, 2-(pyridin-3-yl)-4-(4-fluorophenyl)-4,6,7,8-tetrahydroquinazolin-5(1H)-one] | > 31.1 µM | <4.7 | 148 µM |  |  |  |  |  |
